Data from patent US9107853B2, “Compositions containing phenolic compounds and hydrotropes for cosmetic use” (L'Oreal S.A., priority 2012, dated 2015).

Tests used:
Format in all cases: physicochemical
[1] = Solubility in water, with or without hydrotropes, at room temperature
[2] = Solubility in organic solvent PEG-4
Description: (§1) Crystallization or precipitation occurs after mixing the glycol phase and water phase.

[3] = Stability of solutions (pH, dilution in water)
Description: as §1
The solubility of baicalin can be increased by raising the concentration of hydrotropes.

O=C(O)[C@H]1O[C@@H](Oc2cc3oc(-c4ccccc4)cc(=O)c3c(O)c2O)[C@H](O)[C@@H](O)[C@@H]1O [Baicalin]
water solubility [1]: < 0.01% | amount dissolved by PEG-4 [2]: 3% | degradation as a function of pH ([3]; aqueous): degradation happens at pH>5 | stability of solution after dilution in water ([3]; hydrotrope solution diluted in water): still stable if diluted in water | stability of solution after dilution in water ([3]; solution in organic solvent such as PEG-4, diluted in water): not stable any more
